Assays:
K-Ras G12D = target: T1, K-Ras G12D (Homo sapiens, UniProt P01116, G12D); assay: HTRF resonance energy transfer assay, K-Ras G12D / SOS1 interaction; type: biochemical; settings: HTRF assay of Example 5; read-out: IC50 against K-Ras G12D
T1 construct: made in house; host or cells: E. coli BL21 (DE3)
Summary of the method: (§1)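 GST-tagged K-Ras (WT or mutant) bound to anti-GST-Eu donor was mixed with His-hSOS1 bound to anti-6His-XL665 acceptor in ~5 mM HEPES pH 7.4, 150 mM NaCl, 1 mM DTT, 0.05% BSA, 0.0025% Igepal. HTRF (ex 337, em 620/665 nm) was read after ~10 min or longer. IC50 came from the 665/620 ratio over duplicates from 10 μM to 0.01 μM.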

K-Ras G12S = target: T2, K-Ras G12S (Homo sapiens, UniProt P01116, G12S); assay: HTRF resonance energy transfer assay, K-Ras G12S / SOS1 interaction; type: biochemical; settings: HTRF assay of Example 5; read-out: IC50 against K-Ras G12S
T2 construct: made in house; host or cells: E. coli BL21 (DE3)
Summary of the method: as §1

K-Ras G12V = target: T3, K-Ras G12V (Homo sapiens, UniProt P01116, G12V); assay: HTRF resonance energy transfer assay, K-Ras G12V / SOS1 interaction; type: biochemical; settings: HTRF assay of Example 5; read-out: IC50 against K-Ras G12V
T3 construct: made in house; host or cells: E. coli BL21 (DE3)
Summary of the method: as §1

K-Ras WT = target: T4, K-Ras WT (Homo sapiens, UniProt P01116); assay: HTRF resonance energy transfer assay, K-Ras WT / SOS1 interaction; type: biochemical; settings: HTRF assay of Example 5; read-out: IC50 against K-Ras WT
T4 construct: made in house; host or cells: E. coli BL21 (DE3)
Summary of the method: as §1

A549 cells = assay: Ras cellular assay, growth of cells with K-Ras G12S mutation (CellTiter-Glo); type: cell-based; settings: Homo sapiens, cell growth, Example 9, G12S mutation, read-out: IC50 against A549 cells
Description: For example, this assay can be also used to assess a selective growth inhibition of a mutant Ras protein relative to a wildtype, or relative to a different mutant Ras protein.
A549 (ATCC CCL-185) and LS123 (ATCC CCL-255) cell lines comprise a G12S mutation and can be used to assess Ras cellular signaling in vitro, e.g., in response to the compounds herein. A549 culture medium is prepared with RPMI-1640 and 10% heat-inactivated FBS. LS123 culture medium is prepared with RPMI-1640 and 10% heat-inactivated FBS. A CellTiter-Glo (CTG) luminescent based assay (Promega) is used to assess growth of the cells, as a measurement of the ability of the compounds herein to inhibit Ras signaling in the cells. The cells (e.g., 800 per well) are seeded in their respective culture medium in standard tissue culture-treated 384-well format plates (Falcon #08-772-116) or ultra-low attachment surface 384-well format plates (S-Bio #MS-9384WZ). The day after plating, cells are treated with a dilution series (e.g., a 10 point 3-fold dilution series) of the compounds herein (e.g., approximately 40 μL final volume per well). Cell viability can be monitored (e.g., approximately 6 days later) according to the manufacturer's recommended instructions, where the CellTiter-Glo reagent is added (e.g., approximately 10 μL), vigorously mixed, covered, and placed on a plate shaker (e.g., approximately for 20 min) to ensure sufficient cell lysis prior to assessment of luminescent signal. The IC50 values are determined using the four parameter fit. The resulting IC50 value is a measurement of the ability of the compounds herein to reduce cell growth of Ras-driven cells (e.g., tumor cell lines) in vitro and/or in vivo.

T1 sequence (P01116 1-188 isoform P01116-2 G12D): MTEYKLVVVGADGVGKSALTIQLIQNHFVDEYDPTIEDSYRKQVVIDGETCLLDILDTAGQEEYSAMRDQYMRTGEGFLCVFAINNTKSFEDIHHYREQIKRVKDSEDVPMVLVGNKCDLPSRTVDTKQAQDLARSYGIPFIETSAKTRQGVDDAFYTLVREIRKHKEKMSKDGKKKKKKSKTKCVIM
T4 sequence (P01116 1-188 isoform P01116-2): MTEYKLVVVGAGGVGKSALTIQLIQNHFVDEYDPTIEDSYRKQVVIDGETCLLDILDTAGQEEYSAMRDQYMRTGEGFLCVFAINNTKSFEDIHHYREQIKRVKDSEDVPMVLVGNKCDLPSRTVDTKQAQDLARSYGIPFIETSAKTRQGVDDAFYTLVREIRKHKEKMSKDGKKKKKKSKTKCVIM
T2 sequence (P01116 1-188 isoform P01116-2 G12S): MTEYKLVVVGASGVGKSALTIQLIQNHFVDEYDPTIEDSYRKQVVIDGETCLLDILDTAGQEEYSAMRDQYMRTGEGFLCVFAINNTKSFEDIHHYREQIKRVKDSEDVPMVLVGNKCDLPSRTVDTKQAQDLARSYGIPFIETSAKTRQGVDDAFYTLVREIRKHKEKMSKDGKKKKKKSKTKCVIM
T3 sequence (P01116 1-188 isoform P01116-2 G12V): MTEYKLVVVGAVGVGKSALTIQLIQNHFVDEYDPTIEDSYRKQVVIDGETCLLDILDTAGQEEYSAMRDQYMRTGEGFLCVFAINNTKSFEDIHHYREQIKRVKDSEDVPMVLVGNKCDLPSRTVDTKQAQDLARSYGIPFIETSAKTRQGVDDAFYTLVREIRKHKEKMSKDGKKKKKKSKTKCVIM

Structure (SMILES)	IC50 (K-Ras G12D) [nM]	IC50 (K-Ras G12S) [nM]	IC50 (K-Ras G12V) [nM]	IC50 (K-Ras WT) [nM]	IC50 (A549 cells) [µM]
C[C@H](Oc1nc2c3c(c(Cl)c(-c4ccc(F)c5sc(N)c(C#N)c45)c(F)c3n1)OCCN2[C@@H]1CCN(C(=O)C(F)F)C1)[C@@H]1CCCN1C [Compound 946, 2-amino-4-(8-chloro-4-((R)-1-(2,2-difluoroacetyl)pyrrolidin-3-yl)-10-fluoro-2-((S)-1-((S)-1-methylpyrrolidin-2-yl)ethoxy)-5,6-dihydro-4H-[1,4]oxazepino[5,6,7-de]quinazolin-9-yl)-7-fluorobenzo[b]thiophene-3-carbonitrile]	< 100	< 100	< 100	< 100	< 5
N#Cc1c(N)sc2c(F)ccc(-c3c(Cl)c4c5c(nc(OC[C@@]67CCCN6C[C@H](F)C7)nc5c3F)N(C3CCOC3)[C@@H](C(F)F)CO4)c12 (stereo partly drawn) [Compound 855, 2-amino-4-((5R)-8-chloro-5-(difluoromethyl)-10-fluoro-2-(((2R,7aS)-2-fluorotetrahydro-1H-pyrrolizin-7a(5H)-yl)methoxy)-4-(tetrahydrofuran-3-yl)-5,6-dihydro-4H-[1,4]oxazepino[5,6,7-de]quinazolin-9-yl)-7-fluorobenzo[b]thiophene-3-carbonitrile]	–	< 100	< 100	–	< 5
N#Cc1c(N)sc2c(F)ccc(-c3c(Cl)c4c5c(nc(OC[C@@]67CCCN6C[C@H](F)C7)nc5c3F)N(C3CC35CCN(C=O)C5)CCO4)c12 (stereo partly drawn) [Compound 1091, 2-amino-4-(8-chloro-10-fluoro-2-(((2R,7aS)-2-fluorotetrahydro-1H-pyrrolizin-7a(5H)-yl)methoxy)-4-(5-formyl-5-azaspiro[2.4]heptan-1-yl)-5,6-dihydro-4H-[1,4]oxazepino[5,6,7-de]quinazolin-9-yl)-7-fluorobenzo[b]thiophene-3-carbonitrile]	< 100	< 100	< 100	< 100	< 5

Results, then the compound that gave them:

IC50 (K-Ras G12D) [nM]	IC50 (K-Ras G12S) [nM]	IC50 (K-Ras G12V) [nM]	IC50 (K-Ras WT) [nM]	IC50 (A549 cells) [µM]	Structure (SMILES)
< 100	< 100	< 100	< 100	< 5	N#Cc1c(N)sc2c(F)ccc(-c3c(Cl)c4c5c(nc(OC[C@@]67CCCN6C[C@H](F)C7)nc5c3F)NCCO4)c12 [Compound 1087, 2-amino-4-(8-chloro-10-fluoro-2-(((2R,7aS)-2-fluorotetrahydro-1H-pyrrolizin-7a(5H)-yl)methoxy)-5,6-dihydro-4H-[1,4]oxazepino[5,6,7-de]quinazolin-9-yl)-7-fluorobenzo[b]thiophene-3-carbonitrile]
< 100	< 100	< 100	< 100	< 5	N#Cc1c(N)sc2c(F)ccc(-c3c(Cl)c4c5c(nc(OC[C@@]67CCCN6C[C@H](F)C7)nc5c3F)N(C3C5CNC3C5)CCO4)c12 (stereo partly drawn) [Compound 991, 4-(4-(2-azabicyclo[2.1.1]hexan-5-yl)-8-chloro-10-fluoro-2-(((2R,7aS)-2-fluorotetrahydro-1H-pyrrolizin-7a(5H)-yl)methoxy)-5,6-dihydro-4H-[1,4]oxazepino[5,6,7-de]quinazolin-9-yl)-2-amino-7-fluorobenzo[b]thiophene-3-carbonitrile]
< 100	< 100	< 100	< 100	< 5	N#Cc1c(N)sc2c(F)ccc(-c3c(Cl)c4c5c(nc(OC[C@@]67CCCN6C[C@H](F)C7)nc5c3F)N(C3CC5(CCNC5)C3)CCO4)c12 (stereo partly drawn) [Compound 1112, 2-amino-4-(8-chloro-10-fluoro-2-(((2R,7aS)-2-fluorotetrahydro-1H-pyrrolizin-7a(5H)-yl)methoxy)-4-(6-azaspiro[3.4]octan-2-yl)-5,6-dihydro-4H-[1,4]oxazepino[5,6,7-de]quinazolin-9-yl)-7-fluorobenzo[b]thiophene-3-carbonitrile]

— patent US12209102B2, “Heterocyclic compounds and uses thereof” (Kumquat Biosciences Inc., priority 2022, dated 2025)
